The values below are quoted from earlier work in patent US9000190B2, “Amide compound or salt thereof, biofilm inhibitor, biofilm remover and disinfectant containing the same” (The University of Tokyo, priority 2006, dated 2015).

Among the test systems are S. aureus ATCC 29213; E. coli ATCC 25922; P. aeruginosa ATCC 27853.
What all share (details): Publicly-known data; cited from earlier work

`NC[C@H]1O[C@H](O[C@H]2[C@H](O)[C@@H](O[C@H]3O[C@H](CO)[C@@H](O)[C@H](N)[C@H]3O)[C@H](N)C[C@@H]2N)[C@H](N)C[C@@H]1O` [TOB, Tobramycin]: the “MIC (μg/mL) from M100-S16” value was 0.12 to 1 µg/mL in the data set on S. aureus ATCC 29213, 0.25 to 1 µg/mL in the data set with E. coli ATCC 25922 and 0.25 to 1 µg/mL in the data set with P. aeruginosa ATCC 27853.
